Assay results as given in patent publication US4278467A, “Substitutive additives for isopropyl alcohol in fountain solution for lithographic offset printing” (priority 1979, dated 1981).
Values after ≈ are worked out from the molar mass of the structure shown. Where two headings read alike, the source gives them in different places.

Assays:
[1] = Solubility of water in the material, percent by weight at 20° C.; assay type: physicochemical; conditions: water dissolved in the additive
[2] = Solubility of selected materials in water, expressed in percent by weight at 20° C.; assay type: physicochemical
[3] = cited from earlier work
[4] = 20° C.; cited from earlier work
[5] = Surface tension as measured by the duNouy tensiometer device; assay type: physicochemical
From the text: In continuous dampening systems, the dampening solution has a surface tension of from about 40 to 50 dynes/cm or less as measured by the duNouy tensiometer device. Isopropyl alcohol has an undiluted surface tension of about 21 dynes/cm and isopropyl alcohol at about 10 to 30 percent by volume in water has a surface tension of between 40 to 50 dynes/cm. […] The point where the optimum ink-water balance control is obtained depends on a combination of complicated factors not yet precisely known. These factors include the design and speed of the press, design of the dampening system, the nature and amount of concentrates that are used in the dampening solution, the nature of the form being printed and the experience of the operator. A typical lower limit of effective use of isopropyl alcohol in continuous flow dampening systems is between about 10 to 15 percent by volume. This corresponds to surface tension values in the range of about 40 to 50 dyne/cm.

[6] = Solubility of the material in heptane; assay type: physicochemical; conditions: 20° C.

With `CCCC(O)C(CC)CO` (stereo not drawn) [2-ethyl-1,3-hexanediol] the “Sol. of Water in (material)” value [1] was 12 percent by weight and the solubility ([2]; water, read-out: Sol. in Water) was 42 mg/mL (≈ 287 mM).
For `CC(C)O` [isopropyl alcohol], the heat of vaporization ([3]; at its boiling point of 82° C.) is given as 164 callories/gm, the vapor pressure [4] is given as “about 30 mm of Hg” and the surface tension ([5]; about 10 to 30 percent by volume in water) is given as 40 to 50 dynes/cm. For the same compound, the surface tension ([5]; lower limit of effective use, about 10 to 15 percent by volume) was 40 to 50 dyne/cm and the surface tension ([5]; undiluted) was “about 21 dynes/cm”.
In the case of `CCCCCCOCCO` [n-hexyl Cellosolve, n-hexoxyethylene glycol], the “Sol. in Heptane” value [6] is reported as “Complete”, the “Sol. of Water in (material)” value [1] is reported as 19 percent by weight and the “Sol. in Water” value [2] is reported as 1.0 percent by weight.
In the case of `O` [water], the heat of vaporization ([3]; at 100° C.) is given as 540 calories/gm and the vapor pressure [4] is given as ~18 mm of Hg.
